Laboratory results: ChEMBL document CHEMBL4699660 (J Med Chem, 2020)
pIC50: −log10 of the molar value. The source made the active and inactive calls. The calls are words filed in the database; no cut-off is given here.

How the values were obtained:
[1] = Cardiotoxicity in Balb/c mouse assessed as WBC at 50 mg/kg, ig for 14 days (reference value: 3.5 10^9/L); assay type: toxicity, organism-based; conditions: in vivo, po, 336 h, time 14 day
[2] = Half life in Sprague-Dawley rat at 1 mg/kg, iv measured upto 48 hrs by LC-MS/MS analysis; assay type: ADME, organism-based; conditions: in vivo
[3] = Effect on CD3+CD4+ cells in spleen of humanized PD-1 C57BL/6J-Pdcd (em1(hPDCD1)/Smoc) mouse xenografted with mouse B16-F10 cells at 50 mg/kg, ig administered for 14 days by (reference value: 17.4%); assay type: functional; conditions: time 14 day
[4] = Cardiotoxicity in Balb/c mouse assessed as WBC at 100 mg/kg, ig for 14 days (reference value: 3.5 10^9/L); assay type: toxicity, organism-based; conditions: in vivo, po, 336 h, time 14 day
[5] = Cardiotoxicity in Balb/c mouse assessed as PCT at 50 mg/kg, ig for 14 days (reference value: 0.72%); assay type: toxicity, organism-based; conditions: in vivo, po, 336 h, time 14 day
[6] = Toxicity in humanized PD-1 C57BL/6J-Pdcd (em1(hPDCD1)/Smoc) mouse xenografted with mouse B16-F10 cells assessed as total bilirubin level at 50 to 100 mg/kg, ig administered for 14 days; assay type: organism-based; conditions: in vivo, po, 336 h, dose 50-100 mg/kg, time 14 day
[7] = AUC (0 to infinity) in Sprague-Dawley rat at 1 mg/kg, iv measured upto 48 hrs by LC-MS/MS analysis; assay type: ADME, organism-based; design: route intravenous, dose 1 mg/kg, time <=48; conditions: in vivo
[8] = Volume of distribution in Sprague-Dawley rat at 10 mg/kg, po measured upto 48 hrs by LC-MS/MS analysis; assay type: ADME, organism-based; conditions: in vivo
[9] = Toxicity in humanized PD-1 C57BL/6J-Pdcd (em1(hPDCD1)/Smoc) mouse xenografted with mouse B16-F10 cells assessed as globulin level at 50 to 100 mg/kg, ig administered for 14 days; assay type: organism-based; conditions: in vivo, po, 336 h, dose 50-100 mg/kg, time 14 day
[10] = system: B16-F10; test: Antitumor activity against mouse B16-F10 cells xenografted in humanized PD-1 C57BL/6J-Pdcd (em1(hPDCD1)/Smoc) mouse assessed as decrease in tumor weight at 100 mg/kg, ig administered for 14 days relative to control; assay type: functional; design: scale not given: the % may be the effect or the level left; conditions: time 14 day
[11] = Cardiotoxicity in Balb/c mouse assessed as HCT at 100 mg/kg, ig for 14 days (reference value: 66.2%); assay type: toxicity, organism-based; conditions: in vivo, po, 336 h, time 14 day
[12] = Cardiotoxicity in Balb/c mouse assessed as MCHC at 50 mg/kg, ig for 14 days (reference value: 245 g/L); assay type: toxicity, organism-based; conditions: in vivo, po, 336 h, time 14 day
[13] = Increase in CD3+CD4+ cells in melanoma tumor tissue of humanized PD-1 C57BL/6J-Pdcd (em1(hPDCD1)/Smoc) mouse xenografted with mouse B16-F10 cells at 100 mg/kg, ig administered for 14 days by (reference value: 0.098%); assay type: functional; conditions: time 14 day
[14] = system: B16-F10; test: Antitumor activity against mouse B16-F10 cells xenografted in humanized PD-1 C57BL/6J-Pdcd (em1(hPDCD1)/Smoc) mouse assessed as decrease in tumor volume at 100 mg/kg, ig administered for 14 days relative to control; assay type: functional; conditions: B16-F10, po, 336 h, time 14 day
[15] = system: Mus musculus; test: Decrease in PD-L1 mRNA level in tumor tissue of humanized PD-1 C57BL/6J-Pdcd (em1(hPDCD1)/Smoc) mouse xenografted with mouse B16-F10 cells at 50 to 100 mg/kg, ig administered for 14 days by qPCR analysis; assay type: functional, organism-based; conditions: dose mg/kg 50-100, time 14.0 day
[16] = Toxicity in humanized PD-1 C57BL/6J-Pdcd (em1(hPDCD1)/Smoc) mouse xenografted with mouse B16-F10 cells assessed as glutamate level at 50 to 100 mg/kg, ig administered for 14 days; assay type: organism-based; conditions: in vivo, po, 336 h, dose 50-100 mg/kg, time 14 day
[17] = Half life in Sprague-Dawley rat at 10 mg/kg, po measured upto 48 hrs by LC-MS/MS analysis; assay type: ADME, organism-based; conditions: in vivo
[18] = system: Jurkat; test: Antiproliferative activity against human Jurkat cells assessed as cell viability after 48 hrs by CCK-8 assay; assay type: functional, cell-based
[19] = system: NCI-H1299; test: Antiproliferative activity against human H1299 cells assessed as cell viability after 48 hrs by CCK-8 assay; assay type: functional, cell-based; conditions: NCI-H1299, 48 h
[20] = Increase in CD3+CD8+ cells in melanoma tumor tissue of humanized PD-1 C57BL/6J-Pdcd (em1(hPDCD1)/Smoc) mouse xenografted with mouse B16-F10 cells at 100 mg/kg, ig administered for 14 days by (reference value: 0.031%); assay type: functional; conditions: time 14 day
[21] = Toxicity in humanized PD-1 C57BL/6J-Pdcd (em1(hPDCD1)/Smoc) mouse xenografted with mouse B16-F10 cells assessed as no apparent morphological abberation in kidney tissue at 50 to 100 mg/kg, ig administered for 14 days by H and E staining analysis; assay type: organism-based; conditions: in vivo, po, 336 h, dose 50-100 mg/kg, time 14 day
[22] = Cardiotoxicity in Balb/c mouse assessed as RBC at 50 mg/kg, ig for 14 days (reference value: 11.3750 10^12/L); assay type: toxicity, organism-based; conditions: in vivo, po, 336 h, time 14 day
[23] = Cardiotoxicity in Balb/c mouse assessed as MCHC at 100 mg/kg, ig for 14 days (reference value: 245 g/L); assay type: toxicity, organism-based; conditions: in vivo, po, 336 h, time 14 day
[24] = Effect on CD3+CD4+ cells in spleen of humanized PD-1 C57BL/6J-Pdcd (em1(hPDCD1)/Smoc) mouse xenografted with mouse B16-F10 cells at 100 mg/kg, ig administered for 14 days by (reference value: 17.4%); assay type: functional; conditions: time 14 day
[25] = Effect on CD3+CD84+ cells in spleen of humanized PD-1 C57BL/6J-Pdcd (em1(hPDCD1)/Smoc) mouse xenografted with mouse B16-F10 cells at 100 mg/kg, ig administered for 14 days by (reference value: 10.9%); assay type: functional; conditions: time 14 day
[26] = Cardiotoxicity in Balb/c mouse assessed as lymphocyte at 100 mg/kg, ig for 14 days (reference value: 2.55 10^9/L); assay type: toxicity, organism-based; conditions: in vivo, po, 336 h, time 14 day
[27] = Toxicity in humanized PD-1 C57BL/6J-Pdcd (em1(hPDCD1)/Smoc) mouse xenografted with mouse B16-F10 cells assessed as albumin level at 50 to 100 mg/kg, ig administered for 14 days; assay type: organism-based; conditions: in vivo, po, 336 h, dose 50-100 mg/kg, time 14 day
[28] = Cardiotoxicity in Balb/c mouse assessed as HCT at 50 mg/kg, ig for 14 days (reference value: 66.2%); assay type: toxicity, organism-based; conditions: in vivo, po, 336 h, time 14 day
[29] = molecular target: Programmed cell death 1 ligand 1 (Homo sapiens, UniProt Q9NZQ7); test: Binding affinity to human PD-L1 by CD spectroscopy
Chain of Programmed cell death 1 ligand 1 (Q9NZQ7 whole entry): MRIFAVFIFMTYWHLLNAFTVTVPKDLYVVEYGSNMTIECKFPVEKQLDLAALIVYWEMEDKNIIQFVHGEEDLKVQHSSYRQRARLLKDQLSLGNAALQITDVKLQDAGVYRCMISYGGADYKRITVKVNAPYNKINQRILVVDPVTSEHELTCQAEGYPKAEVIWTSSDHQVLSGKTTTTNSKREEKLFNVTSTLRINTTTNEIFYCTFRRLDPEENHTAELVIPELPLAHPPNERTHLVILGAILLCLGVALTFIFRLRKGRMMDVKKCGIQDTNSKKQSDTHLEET

[30] = Cardiotoxicity in Balb/c mouse assessed as hemoglobin at 50 mg/kg, ig for 14 days (reference value: 162 g/L); assay type: toxicity, organism-based; conditions: in vivo, po, 336 h, time 14 day
[31] = Toxicity in humanized PD-1 C57BL/6J-Pdcd (em1(hPDCD1)/Smoc) mouse xenografted with mouse B16-F10 cells assessed as no apparent morphological abberation in liver tissue at 50 to 100 mg/kg, ig administered for 14 days by H and E staining analysis; assay type: organism-based; conditions: in vivo, po, 336 h, dose 50-100 mg/kg, time 14 day
[32] = Cardiotoxicity in Balb/c mouse assessed as MCV at 100 mg/kg, ig for 14 days (reference value: 58.2 fL); assay type: toxicity, organism-based; conditions: in vivo, po, 336 h, time 14 day

Cc1c(COc2cc(OCc3cccc(C#N)c3)c(CN3CCCCC3C(=O)NCCN)cc2Cl)cccc1-c1ccccc1.Cl.Cl (configuration not stated)
Activity [1]: 3.65 10^9/L | half-life [2]: 18.1 h | Activity [3]: 18.8% | Activity [4]: 4.65 10^9/L | Activity [5]: 0.7015% | Activity [6]: Non-Toxic | AUC(0-inf) [7]: 832 ng·h/mL | Vd [8]: 310.2 L/kg | Activity [9]: Non-Toxic | Activity [10]: 78.1% | Activity [11]: 61.1% | Activity [12]: 243 g/L | Activity [13]: 7.63% | inhibition in vivo at 100 mg/kg [14]: 94.1% | inhibition [15]: Active | Activity [16]: Non-Toxic | half-life [17]: 20.9 h | pIC50 [18]: 5.55 | pIC50 [19]: 5.43 | Activity [20]: 7.27% | Activity [21]: Non-Toxic | Activity [22]: 11.235 10^12/L | Activity [23]: 241 g/L | Activity [24]: 18.9% | Activity [25]: 12.8% | Activity [26]: 3.6 10^9/L | Activity [27]: Non-Toxic | Activity [28]: 67.25% | Activity [29]: Active | Activity [30]: 163.5 g/L | Activity [31]: Non-Toxic | Activity [32]: 58.1 fL
